# According to paper PMC11004067, “Identification and characterization of a calcium-binding peptide from salmon bone for the targeted inhibition of α-amylase in digestion” (Food Chemistry: X, 2024):
# Tests used:
# [1] = test system: 3 T3-L1 preadipocytes; assay: Cell viability (MTT) in 3 T3-L1 preadipocytes; format: cell-based; conditions: 24 h, 1 to 100 μg/mL
# Method: With slight modifications based on the method ([Cui et al., 2019]). MTT method was used to assess the proliferative effects of different concentrations of orlistat, SBTH and PIE on 3 T3-L1 preadipocytes. Cells were treated with different samples for 24 h. Finally, the absorbance at 490 nm was measured using a Microplate Reader (Synergy H1, BioTek, USA).
# [2] = Ca-binding capacity (colorimetric Ca kit); conditions: 5 mg sample, 1 mL 5 mM CaCl2, 2 mL PBS 20 mM pH 7, 37 °C 1 h; ranking in words, Fig. 1C
# Method: The Ca-binding capacities of SBPH, SBTH, and SBNPH were determined according to the previous study ([Choi, Jung, Choi, Kim, & Ha, 2005]). 5 mg lyophilized powder of SBPH, SBTH, and SBNPH, was mixed with 1 mL of 5 mM CaCl2 and 2 mL of phosphate-buffered saline (PBS, 20 mM, pH = 7). The mixture was stirred at 37 °C pH = 7 for 1 h, followed by centrifugation at 5000 rpm for 10 min. The calcium content in the supernatant was determined using colorimetry with Ca assay kits (JianCheng, Nanjing, China).
# [3] = test system: α-amylase; assay: DLS analysis of α-amylase particle size / hydrodynamic radius; format: biochemical; conditions: α-amylase 4 units/mL, substance 1-1000 μg/mL, 24 h incubation
# Method: The α-amylase solution (4 units/mL) and SBPH, SBTH, and SBNPH solutions (each at 1, 10, 100, and 1000 μg/mL concentrations) were prepared. Filtration was performed using a 0.45-μm filter. The α-amylase solution was incubated with different concentrations of SBPH, SBTH, and SBNPH solutions for 24 h. Each sample (1 mL) was analyzed using the DLS apparatus. The particle size variation of α-amylase in each solution was analyzed. The α-amylase alone solution was used as a positive control under the same conditions ([Xiong et al., 2016]).
# [4] = ref Xu et al., 2020, 2019, 2022; cited from earlier work
# Source text: Peptidomics facilitates the comprehensive characterization of peptides on a large scale. This analytical approach offers a time-efficient means of generating an extensive array of peptide fragments ([Martini, Solieri, & Tagliazucchi, 2021]). Herein, the peptide sequences were retrieved from an established database using MASCOT, and active peptide sequences with Ca-binding capacities were identified. The peptide sequences from SBTH were identified in Table S1 (Supplementary materials), along with information on their amino acid sequences, lengths, and molecular weights. A total of 6505 peptide ...
# [5] = test system: α-amylase; assay: α-amylase inhibition during in vitro simulated gastrointestinal digestion; format: biochemical; conditions: 0-240 min, DNS method
# Method: The activity of α-amylase was determined spectrophotometrically using soluble starch as the substrate and 3,5-dinitrosalicylic acid (DNS) as the chromogenic agent. α-amylase solution (4 units/mL, 0.25 mL) and 0.25 mL each of SBPH, SBTH, and SBNPH (each at 1 μg/mL, 10 μg/mL, 100 μg/mL, and 1000 μg/mL concentrations) were added to 0.5 mL of PBS (pH 6.9, 0.2 mol/L) to make test solutions. These solutions were then incubated at 37 °C for 10 min. Then, 0.5 mL of 1% soluble starch solution was added to each test solution to continue the reaction for 5 min. Thereafter, l mL of DNS reagent was added to each solution, and the mixtures were boiled for 10 min. After the dilution of five times, the absorbance value was measured at 540 nm ([Wu et al., 2019]). […] A represents the absorbance value of the blank tube, a represents the absorbance value of the blank control tube, B represents the absorbance value of the inhibition tube, and b represents the absorbance value of the background control tube.
# A gastrointestinal digestion simulation test was performed according to a previously reported method ([Brodkorb et al., 2019]). Samples were assessed at 0, 10, 30, 60, 90, 120, 130, 150, 180, 210, and 240 min. The inhibition rates of SBPH, SBTH, and SBNPH for α-amylase were determined by the DNS method.
# [6] = ref Xu et al., 2020, 2019, 2022; cited from earlier work; remark: listed apart in the source
# [7] = test system: α-amylase; assay: α-amylase inhibition rate (DNS method, soluble starch); format: biochemical; conditions: 100 μg/mL; α-amylase 4 units/mL, PBS pH 6.9, 37 °C 10 min, 1% soluble starch 5 min, DNS 540 nm; mean, n = 3
# Method: The activity of α-amylase was determined spectrophotometrically using soluble starch as the substrate and 3,5-dinitrosalicylic acid (DNS) as the chromogenic agent. α-amylase solution (4 units/mL, 0.25 mL) and 0.25 mL each of SBPH, SBTH, and SBNPH (each at 1 μg/mL, 10 μg/mL, 100 μg/mL, and 1000 μg/mL concentrations) were added to 0.5 mL of PBS (pH 6.9, 0.2 mol/L) to make test solutions. These solutions were then incubated at 37 °C for 10 min. Then, 0.5 mL of 1% soluble starch solution was added to each test solution to continue the reaction for 5 min. Thereafter, l mL of DNS reagent was added to each solution, and the mixtures were boiled for 10 min. After the dilution of five times, the absorbance value was measured at 540 nm ([Wu et al., 2019]). The inhibition of the activity of α-amylase by salmon bone hydrolysate was calculated as using the formula (1):(1) I%=[1−B−b/A−a×100% where I represents the inhibition rate of α-amylase by salmon bone hydrolysates. A represents the absorbance value of the blank tube, a represents the absorbance value of the blank control tube, B represents the absorbance value of the inhibition tube, and b represents the absorbance value of the background control tube.
# [8] = Effect of PIE on body weight in mice; format: in vivo; conditions: 30 mg/kg by gavage, 12 weeks, female BALB/c mice
# Method: The animal study was approved by the Animal Ethics Committee of Dalian Polytechnic University (protocol ID SYXK2017–0005) per the guidelines of the National Institutes of Health Laboratory Animals for Animal Care. 10-week-old female BALB/c mice (L20160258, Dalian Medical University, Liaoning, China) were acclimatized with normal chow for 2 d, and were randomly separated 2 groups (n = 8): the control group (saline) and the PIE group (at a dose of 30 mg PIE/kg body weight). Both groups were maintained on a basal diet throughout the study. Given that mice are nocturnal feeders, gavage was performed between 5:00–6:00 PM. Body weights were measured and recorded at 7-day intervals. The feed and water were provided ad libitum to mice. Changes in body weight were analyzed after 12 weeks of continuous gavage ([Pinzón-García et al., 2018]).
# [9] = test system: 3 T3-L1 preadipocytes; assay: Total cellular cholesterol content; format: cell-based; conditions: 1000 μg/mL
# Method: (§1) With minor modifications based on the method ([Lee et al., 2023]). 3 T3-L1 Preadipocytes were cultured at 37 °C and 5% CO2 until 80% fusion, passaged and differentiated. After induction with inducers for 8d, the cells were then cultured with DMEM containing 1% PS and 10% FBS for 4d.
# Total cellular cholesterol content was measured using a kit (JianCheng, Nanjing, China). The […] enzymatic method was used according to the manufacturer's instructions. Protein concentration was measured using the BCA protein assay kit (Solarbio, Beijing, China).
# [10] = test system: 3 T3-L1 preadipocytes; assay: Cellular triglyceride content; format: cell-based; conditions: 1000 μg/mL, with Inducers I and II
# Method: as §1
# Cellular triglyceride content (TG) was measured using a kit (JianCheng, Nanjing, China). Differentiated adipocytes were treated with different samples in 6-well plates according to the manufacturer's instructions. Cells were first washed with PBS, followed by the addition of ethanol. The cells were then transferred into centrifuge tubes using a cell scraper. Subsequently, the cells were broken down by ultrasound in an ice water bath. […] was measured using a specialized kit.
# [11] = target: α-amylase; assay: Kinetics of α-amylase inhibition (Lineweaver-Burk); format: biochemical; conditions: 37 °C
# Method: The kinetics of α-amylase inhibition was performed with minor modifications as previously reported ([Cardullo et al., 2020]). In the reaction system, 1 mL of soluble starch solution (10 mg/mL) and 1 mL of different concentrations of SBPH, SBTH, and SBNPH (concentrations of 1, 10, 100, and 1000 μg/mL, respectively) were added. a temperature bath was maintained at 37 °C for 30 min. Different concentrations of α-amylase solution were added. The change in absorbance value of the system was determined. Plot the rate of enzymatic reaction versus α-amylase concentration.
# To the reaction system, 1 mL of soluble starch solution of different concentrations (0, 5, 10, 15, 20, 25 mg/mL) was added. The effects of different concentrations of SBPH, SBTH and SBNPH on α-amylase activity were determined at 37 °C in a water bath. Finally, the inverse of the concentration of soluble starch solution was used as the horizontal coordinate and plotted with Lineweaver-Burk plots to determine the type of inhibition of α-amylase by SBPH, SBTH and SBNP. The general equation for reversible inhibition is given below: v=vmaxS/Km1+i/Kic+1+i/Kiu 1/v=Km+s/vmaxs+iKm/Kic+s/Kiu/vmaxs 1/v=Km/vmax1+i/Kic+s/vmax1+i/Kiu where Km is the Michaelis-menten constand (mg/mL), v denotes the initial reaction rate (U, mm/min), S denotes the substrate concentration (mg/mL), i denotes the content of the inhibitor concentration (U, mg/mL), Kic denotes the inhibitory constant of the competitive inhibitor, and Kiu denotes the inhibitory constant of the non-competitive inhibitor.
# [12] = test system: α-amylase; assay: α-amylase conformation: secondary structure content by circular dichroism; format: biochemical; conditions: 1-1000 μg/mL
# Method: The effect of peptides on the secondary structure of α-amylase was analyzed by circular dichroism. α-Amylase was reacted with the following different concentrations of SBPH, SBTH, and SBNPH: 1, 10, 100, and 1000 μg/mL. The test parameters were as follows: 1 mm quartz cuvette; scanning wavelength range = 190– 250 nm; bandwidth = 2 nm; scanning speed = 100 nm/min; and response time = 1 s. α-Amylase without SBPH, SBTH, and SBNPH treatment was used as the blank control, and it was analyzed under the same conditions. The experimental results were obtained by subtracting the buffer background from the scanned data ([Zhang & Ma, 2013]).
# [13] = Lineweaver-Burk double inverse plots, soluble starch 0-25 mg/mL
Compound,cytotoxicity [1],calcium-binding capacity / affinity [2],hydrodynamic radius of α-amylase [3],calcium-binding capability [4],α-amylase inhibition rate with simulated digestion time [5],activity and stability in the gastrointestinal tract [6],α-amylase inhibition rate [7] [%],body weight change ([8]; n = 8),"weight gain over three months ([8]; n = 8, basal diet, control group 33.65%) [%]",TC content decreased to [9] [%],TG content reduced to [10] [%],"KI [11, 13] [µg/mL]","KIS [11, 13] [mg/mL]",reversibility of α-amylase inhibition ([11]; enzyme reaction rate against α-amylase concentration),change of α-amylase secondary structure with increasing concentration [12]
CCCCCCCCCCC[C@@H](C[C@@H]1OC(=O)[C@H]1CCCCCC)OC(=O)[C@H](CC(C)C)NC=O [orlistat],no cytotoxicity,–,–,–,–,–,–,–,–,–,–,–,–,–,–
"IEELEEELEAER [PIE, Ile-Glu-Glu-Leu-Glu-Glu-Glu-Glu-Leu-Glu-Ala-Glu-Arg, peptide … from SBTH, purity 94.74%, synthesized at ChinaPeptides]",–,greatest affinity for calcium,increased gradually,pronounced calcium-binding capability,the inhibition rate decreased significantly with the increasing duration of gastrointestinal digestion,robust activity and stability within the gastrointestinal tract,58.81,no significant weight change,6.61,54.35,52.11,3290,3.97,reversible,a decrease in α-helix content and an increase in β-fold structures
